The numbers were not newly measured in patent US20180255771A1, “CONTROLLED GAS PHASE RELEASE OF NON AQUEOUS PHASE LIQUID ESSENTIAL OIL COMPOUNDS FOR AROMATHERAPY, FRAGRANCE AND INSECTICIDAL ACTIVITY” (priority 2015, published 2018), which cites them from elsewhere.

The structures appear in SMILES notation.

Series [1] relates to Ixodes ricinus. As to conditions: for repellency to Ixodes ricinus compared with DEET: 10 ug dose; for repellency to Ixodes ricinus: 1 ug dose.
The conditions of series [2]: at 20° C.
For series [3] the following is noted: USEPA conclusion.

`C=CCc1cc(OC)c(O)c(OC)c1` [4-Allyl-2,6-dimethoxyphenol]: the “repellency to Ixodes ricinus compared with DEET” value (“repellency … compared with DEET” for short) in series [1] is “as repellent as DEET”.
Regarding `C=CCc1ccc(O)c(OC)c1` [eugenol], the “repelling ticks (Ixodes ricinus) compared with DEET” value in series [1] (100 ug dose, DEET at a 100 ug dose) is recorded as “as effective at repelling ticks”.
With `CCN(CC)C(=O)c1cccc(C)c1` [DEET, N,N-diethyl-meta-toluamide], the vapor pressure in series [2] is recorded as 0.0056 mm Hg. Besides, in series [3], the “risks to humans or the environment” value is given as “will generally not cause unreasonable risks”. In addition, in series [1], the “repellency to Ixodes ricinus” value is “not reported to be effective”.
Take `Cc1ccc(O)c(O)c1` [4-Methyl-1,2-benzenediol]: the “repellency … compared with DEET” value in series [1] is reported as “as repellent as DEET”.
As to `CCc1ccc(O)c(O)c1` [4-Ethyl-1,2-benzenediol], in series [1], the “repellency to Ixodes ricinus” value is given as “statistically significantly more repellent” and the “repellency … compared with DEET” value is listed as “as repellent as DEET”.
